The test has as its target T1, CadD (Leptospira interrogans, UniProt Q72V44).
T1 sequence (Q72V44 1-442): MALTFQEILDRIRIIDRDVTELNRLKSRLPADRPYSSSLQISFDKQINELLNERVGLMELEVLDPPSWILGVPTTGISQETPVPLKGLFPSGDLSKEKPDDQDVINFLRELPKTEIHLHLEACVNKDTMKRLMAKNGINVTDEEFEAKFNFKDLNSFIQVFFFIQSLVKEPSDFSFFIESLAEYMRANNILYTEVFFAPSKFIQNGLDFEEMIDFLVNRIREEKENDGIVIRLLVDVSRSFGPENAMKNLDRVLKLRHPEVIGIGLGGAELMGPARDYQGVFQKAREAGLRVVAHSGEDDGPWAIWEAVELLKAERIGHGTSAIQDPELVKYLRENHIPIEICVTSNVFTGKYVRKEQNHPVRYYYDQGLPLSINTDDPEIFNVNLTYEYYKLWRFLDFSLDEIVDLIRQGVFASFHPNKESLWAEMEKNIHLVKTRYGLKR
The experiment in a line: UV spectrophotometric cAMP deamination at […] nm, inhibition. It is filed as biochemical.

`O=P1(O)OC[C@H]2O[C@@H](n3cnc4cncnc43)[C@H](O)[C@@H]2O1` [cPuMP] had an inhibitory constant (Ki) of 1300 ± 500 nM.

The values above are taken from PMC3880142 (ACS chemical biology, 2013).
